Data as given in publication PMC4772543, “Immune responses to Mycobacterial heat shock protein 70 accompany self-reactivity to human BiP in rheumatoid arthritis” (Scientific Reports, 2016).

Tests used:
[1] = system: splenic CD4+ T cells from CIA-induced DBA/1 J mice; assay: Splenic CD4+ T cell recall culture from CIA mice after oral peptide (proliferation, cytokine ELISA); format: cell-based, mouse
Protocol: (A,B) The MycHSP70_287–306 peptide or control (PBS alone) was orally administered to bovine type II collagen-immunized DBA/1 J mice after the occurrence of CIA for 5 continuous days (n = 12). Mice were sacrificed on day 35. Arthritis scores were measured by finger and paw swelling, and histological scores were measured by cell infiltration (C), pannus formation (P), and bone destruction (B). (C) Splenic CD4^+ T cell proliferation from CIA-induced DBA/1 J mice in response to a recall antigen (Ag) stimulation (MycHSP70_287–306 and BiP336–355 epitopes, and heat-denatured bovine type II collagen (BC II)). Proliferation was determined by[3]-H thymidine incorporation. (D) Serum anti-BiP and anti-BC II antibody titers were measured by ELISA. (E,F) Mouse IL-10 and TGF-beta1 concentrations in the splenic CD4^+ T cell culture were measured by ELISA.
(§1) HLA-DR4 transgenic mice were obtained from Taconic, immunized twice (day 0, 14) with 100 μg of MycHSP70 with the same volume of complete Freund’s adjuvant subcutaneously into the tails, and sacrificed on day 21. MACS-purified CD4^+ T cells (1 × 10^5/mL) were cultured with irradiated splenocytes (1 × 10^6/mL) and an antigen (10 μg/mL) in RPMI 1640 medium supplemented with 5% FCS, 2 mM L-glutamine, 100 U/ml penicillin, 100 μg/ml streptomycin, and 5 × 10^−5 M 2-mercaptoethanol in a humidified incubator at 37 °C, 5% CO2, for 72 h. ^3H-thymidine was pulsed to each well, cells were harvested after an 18-hour incubation, and analyzed with a scintillation counter.
CIA in the background of DBA/1 J female mice (SLC Japan) was performed and arthritis scores were acquired as previously described. In the therapeutic experiments, mice were administered 200 μg of MycHSP287–306 peptides orally for 5 continuous days following the onset of arthritis. Mice were sacrificed on day 35, and the CD4^+ T cell culture was performed as described above. Mouse cytokine concentrations in the supernatants were measured using a mouse IL-10 ELISA kit and mouse/human TGF-beta 1 ELISA kit (eBioscience) according to the manufacturer’s protocol. Tissue samples were embedded in paraffin wax after 10% formaldehyde fixation and decalcification. Sections were stained with hematoxylin and eosin. Synovial tissues were graded by mononuclear cell infiltration, pannus formation, and cartilage erosion, as described previously. All animal experiments were conducted in accordance with Institutional and National Guidelines, and the protocols were approved by the Ethical Committee on Animal Experiments of the University of Tokyo. […]
The experimental protocol was the same as Figure 6.
(A)(B)Mouse IL-17 and IFN-gamma concentrations in the splenic CD4+ T cell
culture was measured by ELISA (Mouse cytokine ELISA ready-set-go,
eBioscience) according to the manufacture’s protocol. […]

[2] = system: CD4+ T cells from MycHSP70-immunized HLA-DR4 transgenic mice; assay: Splenic CD4+ T cell proliferation from MycHSP70-immunized HLA-DR4 transgenic mice in response to epitopes; format: cell-based, mouse; conditions: antigen 10 μg/mL, 72 h, irradiated splenocytes, 3H-thymidine
Protocol: Figure 5 Immunization of HLA-DR4 transgenic mice with MycHSP70. (A) HLA-DR4 transgenic mice were immunized with recombinant MycHSP70. Serum anti-MycHSP70 and anti-mouse BiP antibody titers were measured in the 21 days following the first immunization. (B) Splenic CD4+ T cell proliferation from MycHSP70-immunized HLA-DR4 transgenic mice in response to MycHSP70_287–306 and BiP336–355 epitopes. Proliferation was determined by the incorporation of [3]-H thymidine. Data were representative of at least three independent trials. ***p < 0.001.
as §1

HLA-DRB1*0405 = molecular target: T1, HLA-DRB1*0405 (Homo sapiens, UniProt P01903+P01911, A100R/A169T/D86S/F76Y/I96L/K127E/L162R/M171V/N62H/P40V/Q125Y/R42H/S133A/S149N/S66Y/V115G/V209L/W38E); assay: HLA-DR4 peptide binding assay (competition with labelled HA peptide); conditions: inhibition of labelled HA peptide (0.5 nM) binding to 40 nM purified DR4, 37 °C, 4 h
T1 construct: Soluble DR4 molecules in the supernatant were collected and purified; made in house; host or cells: Drosophila S2 cells
Text: (§2) Figure 4 HLA-DR4 binding assay. (A) Binding activities between a HLA-DRB1*0401 and 0405 molecule and MycHSP70_287–306. Binding activities were estimated by the inhibition of peroxidase-labeled HA307–318 peptide binding to a HLA-DRB1 molecule. (B) Binding of MycHSP70_287–306 with alanine-substituted peptides to HLA-DRB1*0405 molecules. A MycHSP70_287–306-derived peptide in which an amino residue was substituted by an alanine residue. Inhibitory concentration 50% (IC50) was used as a measure of binding activity. *p < 0.05, **p < 0.01, ***p < 0.001.
(§3) The procedure to assess peptide binding to HLA-DRB1*0401 and 0405 was described in a previous study. In brief, HLA-DRA1B1*0401 and 0405 was cloned and transfected into S2 Drosophila cells. Soluble DR4 molecules in the supernatant were collected and purified through an affinity column coupled with the anti-DR antibody LB3.1. In the peptide binding assay, a 40 nM solution of purified DR4 was incubated at 37 °C for 4 h with the HA307–319 peptide (0.5 nM), which had been labeled at the N terminus with biotin. The indicated concentrations of the peptides were added as competitors to HA peptide binding. […] Bound biotinylated peptides were detected by an incubation with streptavidin-alkaline phosphatase. An automatic microplate reader (Bio-rad 550, Bio-rad) was used to measure optical density.

HLA-DRB1*0401 = molecular target: T2, HLA-DRB1*0401 (Homo sapiens, UniProt P01903+P01911, A100K/A169T/F76Y/I96L/K127E/L162R/M171V/N62H/P40V/Q125Y/R42H/S133A/S149N/S66Y/V115G/V209L/W38E); assay: as above; conditions: inhibition of labelled HA peptide (0.5 nM) binding to 40 nM purified DR4, 37 °C, 4 h
T2 construct: Soluble DR4 molecules in the supernatant were collected and purified; made in house; host or cells: Drosophila S2 cells
Text: as §2, §3

[3] = MycHSP70_287–306 and BiP336–355 recall stimulations, peptide-treated mice, ELISA
[4] = mice given MycHSP70_287–306 orally vs PBS, 3H-thymidine

Sequence: DRTRKPFQSVIADTGISVSE [MycHSP70_287–306]
- secretion of IL-10 from CD4+ T cells [1, 3]: induced
- secretion of TGF-β1 from CD4+ T cells [1, 3]: induced
- proliferation of CD4+ T cells in response to BiP336–355 recall [1, 4]: reduced
- proliferation of CD4+ T cells in response to MycHSP70_287–306 recall [1, 4]: reduced
- bovine type II collagen-specific T cell proliferation ([1]; mice given MycHSP70_287–306 orally vs PBS, heat-denatured BC II recall): suppressed
- pro-inflammatory cytokine secretion from CD4+ T cells ([1]; mouse IL-17 and IFN-gamma by ELISA, mice given peptide orally vs PBS (Supplementary Figure S2)): suppressed
- CD4+ T cell proliferation in response to peptide [2]: significant CD4^+ T cell proliferation was induced
- binding to HLA-DRB1*0405 molecule (HLA-DRB1*0405): bound
- binding to HLA-DRB1*0401 molecule (HLA-DRB1*0401): bound
